Entries after “also recorded” stand apart in the source; their conditions may differ. Blank lines part the entries; values can stand above or below the compound they belong to.
Assays:
[1] = tested on: senile plaques and diffuse plaques (amyloid β-protein) in brain sections; assay: Staining of senile plaques and diffuse plaques in brain sections of an Alzheimer's disease patient; design: species or system human; details: for staining properties in sections of the brain of a patient with Alzheimer's disease (senile plaques): 100 μM compound in 50% ethanol, compared with thioflavin S or anti-Aβ antibody 6F/3D on adjacent section; for staining of diffuse plaques in sections of the brain of a patient with Alzheimer's disease: 100 μM compound, diffuse plaques stained with anti-Aβ antibody 6F/3D on adjacent section
Excerpt: (§1) The following explanation is made about testing of staining properties of the compounds of the present invention on brain sections of an Alzheimer's disease patient.
(§2) (1) Temporal lobe or hippocampus specimens of the brain of a patient who had been definitely diagnosed pathologically as Alzheimer's disease and of a normal aged individual were used. These specimens were provided from Fukushimura Hospital, our joint research facility, with the consent to their use for research purpose received from the bereaved family of the patient (BF Research Laboratories Institutional Ethics Board Permission No. RS-99-02).
(§3) (2) The brain tissues embedded in paraffin were sliced 6 or 8 μm thick, extended on slides, and dried. The paraffin-embedded brain sections were deparaffined by washing sequentially with xylene (10 minutes, twice), 100% ethanol (15 minutes, twice), 95% ethanol (15 minutes, twice), and a stream of water (10 minutes).
(§4) (3) Pre-treatment for staining with compounds of the present invention involved treating the sections for eliminating self-fluorescence due to lipofuscin. First, the deparaffined sections were immersed into a 10% formalin solution for 60 minutes and washed with PBS for 5 minutes, followed by immersion into a 0.25% solution of KMnO4 for 90 minutes. After washing twice with PBS for 2 minutes each, the sections were immersed into a solution of 0.1% K2S2O5/oxalic acid for about 30 seconds each, and then washed three times with PBS for 2 minutes each.
(§5) (4) About 150 μl of a 100 μM solution of a compound of the present invention dissolved in 50% ethanol was added dropwise onto the sections and allowed the reaction to be carried out for 10 minutes. The sections were dipped into tap water five times, and then 50% ethanol three to five times, followed by immediate classification. After that, the sections were immersed into PBS for 60 minutes, enclosed with Fluor Save Reagent (Calbiochem), and examined under a fluorescent microscope (Nikon, Eclips E800) . Pictures were taken using a digital camera (Plaroid PDMCII).
Immunostaining was carried out as follows.
(a) Procedures for Immunostaining Amyloid β-Protein:
(1) After the sections were deparaffined, the sections were washed twice in distilled water for 2 minutes each, and tissues were marked with an Immunopen. About 150 μl of formic acid was added dropwise and allowed to stand at room temperature for 5 minutes. The sections were washed with tap water for 5 minutes and immersed into cold PBS-Tween 20 for 2 minutes, and then about 150 μl of a 0.05% trypsin solution was added dropwise and allowed the reaction to be carried out at 37° C. for 15 minutes.
(2) In an ice bath, the sections were washed twice with cold PBS-Tween 20 for 5 minutes each, and two drops of blocking serum were added and allowed the reaction to be carried out at 37° C. for 15 minutes. Excess water was removed, and about 150 μl of 6F/3D, an antibody specific to amyloid β-protein (DAKO; diluted 1:50) was added dropwise and allowed the reaction to be carried out at 37° C. for 1 hour.
(3) Further, after washing five times with cold PBS-Tween 20 for 2 minutes each, two drops of a solution of goat anti-mouse IgG (H+L) conjugated to biotin were added and allowed the reaction to be carried out at 37° C. for 1 hour. After that, the sections were washed three times with cold PBS-Tween 20 for 2 minutes each, and two drops of ABS solution (a streptavidin-biotin-peroxidase complex solution) were added and allowed to stand for 30 minutes. The sections were again washed three times with cold PBS-Tween 20 for 2 minutes each, and about 150 μl of DAB solution (prepared by dissolving 10 mg of DAB in 20 ml of 0.05 mol/l Tris-HCl buffer and adding 100 μl of 3% hydrogen peroxide immediately before use) were added and allowed the color to be developed sufficiently. Then, the sections were washed with distilled water for 1 minute to stop the reaction, enclosed, and examined under a microscope.

[2] = Blood-brain barrier permeability after intravenous administration; assay type: in vivo; details: Slc:ICR, mouse, not told; mice, two minutes after intravenous administration; read-out: content in Brain (blood-brain barrier permeability)
Excerpt: (B) Testing of Blood-Brain Barrier Permeability

[3] = Acute toxicity testing by intravenous administration; assay type: in vivo; details: male Crj:CD1 mice, observed up to 7 days
Procedure: (A) Testing of Acute Toxicity
Acute toxicity of the inventive compounds was determined employing mice by intravenous administration. Male Crj:CD1 mice were used and divided into groups of 4 mice, with an average weight of each group of 31-32 g. […] Up to 7 days after administration, observations were made.

[4] = tested on: neurofibrillary tangles (tau protein) in brain sections; assay: Neurofibrillary tangles staining in brain sections of an Alzheimer's disease patient; design: species or system human; details: for specificity of staining to tau protein / neurofibrillary tangles: compared with thioflavin S (FIG. 17)
Excerpt: as §1, §2, §3, §4, §5
(b) Procedures for Immunostaining Neurofibrillary Tangles:
(1) Immunostaining of neurofibrillary tangles was carried out as follows. After the sections were deparaffined, the sections were washed twice with distilled water for 2 minutes each, tissues were marked with an Immunopen. About 150 μl of 3% hydrogen peroxide (diluted in methanol) was added dropwise and allowed to stand at room temperature for 10 minutes.
(2) The sections were washed twice with cold PBS-Tween 20 for 5 minutes each, and two drops of blocking serum were added and allowed the reaction to be carried out at 37° C. for 30 minutes. Excess water was removed, and two drops of pSer422, an antibody specific to phosphorylated tau (Wako Phosphorylated Tau Immunohistostain Kit 299-57301) and allowed the reaction to be carried out overnight at 4° C.
(3) On the next day, the sections were washed five times with cold PBS-Tween 20 for 2 minutes each, and two drops of a solution of goat anti-rabbit IgG conjugated to biotin were added and allowed the reaction to be carried out at 37° C. for 1 hour. After that, the sections were washed three times with cold PBS-Tween 20 for 2 minutes each, and two drops of ABS solution (a streptavidin-biotin-peroxidase complex solution) were added and allowed to stand for 30 minutes.
(4) The sections were again washed three times with cold PBS-Tween 20 for 2 minutes each, and about 150 μl of DAB solution (prepared by dissolving 10 mg of DAB in 20 ml of 0.05 mol/l Tris-HCl buffer and adding 100 μl of 3% hydrogen peroxide immediately before use) were added and allowed the color to be developed sufficiently. Then, the sections were washed with distilled water for 1 minute to stop the reaction, enclosed, and examined under a microscope. The blocking serum, the solution of goat anti-rabbit IgG conjugated to biotin, and the ABC solution used were those contained in a Phosphorylated Tau Immunohistostain Kit (Wako 299-57301).

Clearance from the brain = details: in vivo

Compound: CNc1ccc(/C=C/C=C/c2nc3ccccc3o2)cc1 [BF-185, 2-[[4-(4-methylamino)phenyl]-1,3-butadienyl)benzoxazole]
staining properties in sections of the brain of a patient with Alzheimer's disease (senile plaques) [1]: mainly stains senile plaques
staining of diffuse plaques in sections of the brain of a patient with Alzheimer's disease [1]: stains; also recorded: display affinity also for diffuse plaques and provide their clear staining
tissue uptake at 2 min [2]: 3.9 %ID/g
Maximum Tolerated Dose [3]: ≧10 mg/kg

Compound: CNc1ccc(/C=C/C=C/c2nc3ccccc3s2)cc1 [BF-187, 2-[[4-(4-methylamino)phenyl]-1,3-butadienyl)benzothiazole]
staining properties in sections of the brain of a patient with Alzheimer's disease (senile plaques) [1]: stains senile plaques
tissue uptake at 2 min [2]: 3.6 %ID/g
Maximum Tolerated Dose [3]: ≧10 mg/kg

tissue uptake at 2 min [2]: 4.8 %ID/g
Compound: CNc1ccc(/C=C/C=C/c2nc3ccccc3[nH]2)cc1 [BF-188, 2-[[4-(4-methylamino)phenyl]1,3-butadienyl]benzoimidazole]
staining properties in sections of the brain of a patient with Alzheimer's disease (senile plaques) [1]: stains senile plaques

Compound: CNc1ccc(/C=C/C=C/C=C/c2ccc3ccccc3n2)cc1 [BF-189, 1-(4-methylaminophenyl)-6-(2-quinolyl)-1,3,5-hexatrien]
staining properties in sections of the brain of a patient with Alzheimer's disease (senile plaques) [1]: stains senile plaques

Compound: CN(C)c1ncc(/C=C/c2nc3ccccc3s2)s1 [BF-196, 2-[2-(2-dimethylaminothiazol-5-yl)ethenyl]benzothiazole]
staining properties in sections of the brain of a patient with Alzheimer's disease (senile plaques) [1]: mainly stains senile plaques

Compound: CN(C)c1ncc(/C=C/c2nc3ccccc3o2)s1 [BF-197, 2-[2-(2-dimethylaminothiazol-5-yl)ethenyl]benzoxazole]
staining properties in sections of the brain of a patient with Alzheimer's disease (senile plaques) [1]: mainly stains senile plaques

Compound: Nc1ccc(/C=C/C=C/c2nc3ccc(O)cc3o2)c(O)c1 [BF-201]
staining properties in sections of the brain of a patient with Alzheimer's disease (senile plaques) [1]: stains senile plaques
MTD at 7 days ([3]; mouse, in vivo, read-out: Maximum Tolerated Dose): ≥ 10 mg/kg

Compound: Cc1nc(/C=C/c2cnc(N(C)C)s2)oc1C [BF-214, 2-(dimethylamino)-5-[2-(4,5-dimethyloxazol-2-yl)ethenyl]thiazole]
staining properties in sections of the brain of a patient with Alzheimer's disease (senile plaques) [1]: stains senile plaques

Compound: CN(C)c1ncc(-c2ccc3ccccc3n2)o1 [BF-221, 2-(2-dimethylaminooxazol-5-yl)quinoline]
staining of phosphorylated tau protein recognized by antibody pSer422 ([4]; adjacent section immunostained with pSer422 (FIG. 18)): stained phosphorylated tau protein
specificity of staining to tau protein / neurofibrillary tangles [4]: high specificity to tau protein

Compound: CN(C)c1ncc(-c2nc3ccccc3o2)s1 [BF-225, 2-(2-dimethylaminothiazol-5-yl)benzoxazole]
Maximum Tolerated Dose [3]: ≧10 mg/kg

clearance from the brain (Clearance from the brain): rapid clearance from the brain
Compound: CN(C)c1ncc(/C=C/c2nc3ccc(OCCF)cc3o2)s1 [BF-227, 2-[2-(2-dimethylaminothiazol-5-yl)ethenyl]-6-(2-fluoroethyloxy)benzoxazole]
staining properties in sections of the brain of a patient with Alzheimer's disease (senile plaques) [1]: mainly stains senile plaques
staining of diffuse plaques in sections of the brain of a patient with Alzheimer's disease [1]: stains; also recorded: display affinity also for diffuse plaques and provide their clear staining

Compound: Nc1ncc(-c2ccc3ccccc3n2)o1 [BF-239, 2-(2-aminooxazol-5-yl)quinoline]
specificity of staining to tau protein / neurofibrillary tangles [4]: high selectivity to neurofibrillary tangles

Compound: Nc1ncc(-c2ccc3ccccc3n2)s1 [BF-240, 2-(2-aminothiazol-5-yl)quinoline]
specificity of staining to tau protein / neurofibrillary tangles [4]: high selectivity to neurofibrillary tangles

Compound: Nc1cnc(-c2ccc3ccccc3n2)o1 [BF-255]
specificity of staining to tau protein / neurofibrillary tangles [4]: high selectivity to neurofibrillary tangles

Compound: O=C(O)c1cc(/C=C/c2ccc(/C=C/c3ccc(O)c(C(=O)O)c3)c(Br)c2)ccc1O [BSB, reference compound]
staining properties in sections of the brain of a patient with Alzheimer's disease (senile plaques) [1]: stains both senile plaques and neurofibrillary tangles

Compound: thioflavin S [reference compound]
staining properties in sections of the brain of a patient with Alzheimer's disease (senile plaques) [1]: stains both senile plaques and neurofibrillary tangles
specificity of staining to tau protein / neurofibrillary tangles [4]: provided enough staining of proteins other than tau protein
